{"source": "patent US20090028871A1", "about": "“NOVEL USE OF LIGANDS SPECIFIC TO FEX-2 POLYPEPTIDE” (KYUNGPOOK NATIONAL UNIVERSITY INDUSTRY-ACADEMIC COOPERATION …, priority 2004, published 2009)", "key": {"[1]": {"tested_on": "premyelomonocytic leukemic U937 cells", "assay": "Induction of apoptosis in U937 cells (annexin V flow cytometry)", "format": "cell-based, human", "conditions": "100 ng/ml, 4 hours", "protocol": "For this purpose, the apoptosis of human leukemic Jurkat T cells (Korean cell line bank) and premyelomonocytic leukemic U937 cells (Korean cell line bank) was induced. The cells were cultured in an RPMI 1640 medium comprising 10% fetal bovine serum. The induction of apoptosis of the Jurkat T cells was performed according to a known method by inoculating the Jurkat T cells in a medium comprising 100 ng/ml of an anti-Fas antibody (CH-11) and culturing the inoculated cells for 6 hours (Oka, K. et al., Proc Natl Acad Sci USA, 95:9535-40, 1998). Also, the induction of apoptosis of the U937 cells was performed according to a known method by inoculating the U937 cells in a medium comprising 100 ng/ml of ectoposide and culturing the inoculated cells for 4 hours (Bave, U., et. al., J Immunol 165:3519-26, 2000). The degree of apoptosis of the cells was determined by measuring the amount of phosphatidylserine expressed on the cell surface, by flow cytometry in the same manner as in Example <5-1> using the annexin V apoptosis detection kit (Santacruz) according to the manufacturer's instruction."}, "[2]": {"tested_on": "L/FEX-2 cells", "assay": "Inhibition of binding and phagocytosis of aged red blood cells by L/FEX-2 cells", "format": "cell-based, mouse", "conditions": "L/FEX-2 cells pre-cultured with 100 μM, 37° C., 30 minutes; relative to control group taken as 100%", "protocol": "Whether or not aged red blood cells are bound and phagocytosed by the L/FEX-2 cells prepared in Example <1-2> and L/Mock cells as a control group was examined. For this purpose, normal red blood cells obtained from normal adult volunteers were first diluted with PBS to a hematocrit concentration of 20% and cultured at 37° C. for 4 days, thus preparing aged red blood cells. Then, each of L/FEX-2 cells, L/Mock cells and normal L cells was cultured to a confluent 6-well plate comprising Dulbecco's modified Eagle's medium (DMEM). To the culture media, aged red blood cells and normal red blood cells were added to a hematocrit concentration of 1% and cultured at 37° C. for one hour. Then, the cells were washed five times with PBS, and observed for the binding of the aged red blood cells and normal red blood cells using an optical microscope. The number of red blood cells bound to 100 randomly selected L/FEX-2 cells was counted and averaged. To analyze phagocytosis, the cells were washed with PBS and treated with water for 10 seconds to completely dissolve undigested cells. Then, the L/FEX-2 cells were stained using the Diff quick staining kit (IMEM Ins., San Marcos, Calif., USA), and five sites from the stained cells were randomly selected and counted for the number of cells which have phagocytosed red blood cells phagocytosed. Binding and phagocytosis indexes (%) were expressed as the percentages of cells having red blood cells bound and phagocytosed thereby, relative to the entire L/FEX-2 cells.\nTo the L/FEX-2 cells prepared in Example <1-2>, 100 μg/ml of the human FEX-2 monoclonal antibody (5G3) was added and the mixture was pre-cultured at 37° C. for one hour. As a control group, mouse immunoglobulin (IgG1) in place of the FEX-2 monoclonal antibody was used. […] After completion of the culture, the binding and phagocytosis of the aged red blood cells were analyzed in the same manner as in Example <4-1>. In this regard, the binding and phagocytosis of the aged red blood cells were expressed as inhibition percentage relative to the case of L/FEX-2 cells, which have not been pre-cultured with the antibody.\nWhether the binding and phagocytosis of red blood cells by the L/FEX-2 cells are inhibited, it was examined by pre-culturing the L/FEX-2 cells with each of the PS liposome, PI liposome, PG liposome, PE liposome, PA liposome and PC liposome prepared in Example <5-3> and then additionally culturing the pre-cultured cells with aged red blood cells. […] After completion of the culture, the binding and phagocytosis of the aged red blood cells were analyzed in the same manner as in. […] The binding and phagocytosis of aged red blood cells were expressed as values relative to the control group taken as 100%. […]"}}, "data": [{"smiles": "COc1cc([C@@H]2c3cc4c(cc3[C@@H](O[C@@H]3O[C@@H]5CO[C@@H](C)O[C@H]5[C@H](O)[C@H]3O)[C@H]3COC(=O)[C@H]23)OCO4)cc(OC)c1O", "note": "[ectoposide]", "values": [{"measurement": "apoptosis of the cells (phosphatidylserine on cell surface, annexin V)", "setting": "[1]", "value": "induced"}]}, {"smiles": "N[C@@H](COP(=O)(O)O)C(=O)O", "note": "[PLS, phospho-L-serine]", "values": [{"measurement": "binding of aged red blood cells", "setting": "[2]", "value": "significant inhibition"}, {"measurement": "phagocytosis of aged red blood cells", "setting": "[2]", "value": "significant inhibition"}]}, {"smiles": "N[C@H](COP(=O)(O)O)C(=O)O", "note": "[PDS, phospho-D-serine]", "values": [{"measurement": "binding of aged red blood cells", "setting": "[2]", "value": "no significant effect"}, {"measurement": "phagocytosis of aged red blood cells", "setting": "[2]", "value": "no significant effect"}]}]}
